Several values for one entry are separate records, joined by “and”; a condition that tells them apart may be missing. Equal values may be shown once. Entries after “also recorded” stand apart in the source; their conditions may differ.
Experiments:
[1] = tested on: advanced biliary tract cancer refractory or intolerant to standard chemotherapy; assay: Phase II randomized placebo-controlled trial, efficacy (PFS by BICR, OS, DCR); assay type: in vivo, human; design: disease control rate (DCR: CR+PR+SD) / Share of disease control patients with high LAT1 expression / Share of disease control patients with low LAT1 expression: concentration or dose not given beside the values
Procedure: (§1) As Phase II trial of Nanvuranlat, a multicenter, randomized, placebo-controlled, double-blind, parallel-group Phase II trial was conducted at 14 centers in Japan for patients with advanced biliary tract cancer who were refractory or intolerant of standard treatment. Patients were randomized in a 2:1 ratio to receive the drug or placebo using biliary tract cancer (BTC) subtype and resection status as allocation factors. The non-rapid (Slow and/or Intermediate) genotype was set as the NAT2 genotype for selection criteria, and based on the results of the PI study conducted earlier, 25 mg/m2 of Nanvuranlat or placebo was administered intravenously for 5 consecutive days and rested for 9 days (14 days: 1 cycle). Administration of the trial drug was continued until the discontinuation criteria were met. The primary endpoint was progression-free survival using RECIST 1.1 based on Blinded Independent Central Review. Images were obtained every 6 weeks from the start date and at discontinuation. PFS was defined as the date of the first documented progressive disease (PD) or death for any reason after randomization. The primary evaluation was conducted in the full analysis set (FAS) population, which consisted of all biliary tract cancer patients randomized to one of the arms. The safety evaluation was conducted in the SAFETY population, which was randomly assigned to one of the arms and received the trial drug. Nanvuranlat was used as monohydrochloride monohydrate.
Kaplan-Meier estimates corresponding to the event time points are calculated and plotted for each treatment group. Confidence intervals for the Kaplan-Meier estimates are constructed using the log-log method with standard errors approximated by the greenwood formula. Point estimates at the 25%, 50%, and 75% of survival time and 95% confidence intervals are obtained and presented in tabular form. The Brookmeyer and Crowley method is used to construct the confidence intervals for survival time percentiles.
Fitting to a stratified Cox proportional hazards model, the hazard ratio exp((β_drug)Λ) and its 95% confidence interval are estimated and presented in tabular and forest plot form, along with the p-value of the Wald test corresponding to the null hypothesis “β_drug=0; exp(β_drug)=1”.
Stratification factor 1: “Facility,” “Gall bladder cancer and other cancers,” and “Existence or nonexistence of primary tumor resection history” Stratification factor 2: “Biliary tract cancer subtype (intrahepatic biliary tract cancer, extrahepatic biliary tract cancer, […], or duodenal papillary carcinoma)” and “Existence or nonexistence of primary tumor resection history”
This test was a multicenter, randomized, double-blind, placebo-controlled, Phase II trial conducted at 14 major cancer centers/hospitals in Japan. Patients were randomly assigned to the Nanvuranlat or placebo group (2:1), stratified by BTC subtype and whether the primary cancer lesion had been resected, generated by an independent statistical group. Randomization to the two treatment groups was performed by IWRS (Interactive Web-based Response System) and generated by an independent statistical group.
Nanvuranlat 25 mg/m^2/day or placebo was administered intravenously for 5 consecutive days, followed by a 9-day rest period (=14 days: 1 cycle). The trial drug was administered by 90-minute infusion at the investigator's site (all patients were admitted during the first treatment cycle). Patients, drug administrators, and clinical trial coordinators were blinded to trial treatment. Nanvuranlat was used as monohydrochloride monohydrate.
Treatment with additional cycles was to continue until disease progression, the occurrence of other unacceptable toxicities, pregnancy confirmation, death, withdrawal of consent, loss to follow-up, unblinding of the trial, or termination of the trial, as determined by the investigator. […]

[2] = Phase II randomized placebo-controlled trial, safety (adverse events); assay type: in vivo
Procedure: as §1, with “The non-rapid (Slow and/or Intermediate) genotype was set as the NAT2 genotype for selection criteria, and based on the results of the PI study conducted earlier, 25 mg/m2 of Nanvuranlat or placebo was administered intravenously for 5 consecutive days and rested for 9 days (14 days: 1 cycle).” left out
The trial drug was administered by 90-minute infusion at the investigator's site (all patients were admitted during the first treatment cycle). Patients, drug administrators, and clinical trial coordinators were blinded to trial treatment. Nanvuranlat was used as monohydrochloride monohydrate.
Secondary endpoint was overall survival (OS), disease control rate (DCR) as assessed by BICR, and safety. […] Blood and urinary concentrations of Nanvuranlat and its metabolite N-acetyl-JPH203 (NAc-JPH203) were evaluated.
The primary efficacy analysis was performed using a full analysis set (FAS) population that included all randomly assigned BTC patients within their designated treatment group. The safety analysis population included all patients who received at least one trial treatment (safety population).
Statistics were used to summarize safety data, response rates, pharmacokinetic and pharmacodynamic data. Unless otherwise specified, all reported p-values are one-sided. Statistical analysis was performed using SAS software (version 9.4).

[3] = cited from earlier work

Q: With `Nc1cc(COc2c(Cl)cc(C[C@H](N)C(=O)O)cc2Cl)c2oc(-c3ccccc3)nc2c1` [Nanvuranlat, O-(5-amino-2-phenylbenzoxazol-7-yl)methyl-3,5-dichloro-L-tyrosine] as the compound, how does the “PFS hazard ratio (HR) by BICR vs placebo” value ([1]; FAS all patients n=104, 25 mg/m2 iv 5 days, 9 days rest) read?
A: Its value is 0.557.

Q: What about the “Median PFS” value ([1]; FAS, Nanvuranlat group n=69) of the same compound?
A: Its value is 46.0 days.

Q: What about the “progression-free survival rate at 1.5 months” value ([1]; FAS, Nanvuranlat group n=69) of the same compound?
A: Its value is 53.6% and 62.3%.

Q: What about the “progression-free survival rate at 3 months” value ([1]; FAS, Nanvuranlat group n=69) of the same compound?
A: The value was 14.5% and 23.2%.

Q: And the “Overall survival HR vs placebo, LAT1 high-expressing subgroup with IHC” value ([1]; IHC, LAT1 high)?
A: The value was 0.35.

Q: What about the “Number of patients with controlled diseases, LAT1 score 0” value ([1]; LAT1 score 0) of the same compound?
A: Its value is 1.

Q: And the “Number of patients with controlled diseases, LAT1 score 1” value ([1]; LAT1 score 1)?
A: Its value is 2.

Q: What about the “Number of patients with controlled diseases, LAT1 score 2” value ([1]; LAT1 score 2) of the same compound?
A: The value was 0.

Q: What about the “Number of patients with controlled diseases, LAT1 score 3” value ([1]; LAT1 score 3) of the same compound?
A: The value was 0.

Q: And the “Number of patients with controlled diseases, LAT1 score 4” value ([1]; LAT1 score 4)?
A: The value was 2.

Q: What about the “PFS HR by BICR vs placebo, LAT1 high expression subgroup” value ([1]; LAT1 score 4-9, n=65) of the same compound?
A: The value was 0.439.

Q: What about the “Number of patients with controlled diseases, LAT1 score 6” value ([1]; LAT1 score 6) of the same compound?
A: Its value is 4.

Q: And the “Number of patients with controlled diseases, LAT1 score 9” value ([1]; LAT1 score 9)?
A: The value was 5.

Q: What about the “Number of disease control patients with high LAT1” value ([1]; Nanvuranlat group, LAT1 high) of the same compound?
A: Its value is 11.

Q: What about the “Number of patients with controlled diseases” value ([1]; Nanvuranlat group, total) of the same compound?
A: The value was 17.

Q: What about the “disease control rate (DCR: CR+PR+SD)” value ([1]; by BICR, Nanvuranlat group) of the same compound?
A: The value was 24.6%.

Q: And the “PFS HR vs placebo, subgroup EHC” value ([1]; extrahepatic biliary tract cancer, 95% CI in brackets)?
A: The value was 0.150 (0.0437-0.5153).

Q: And the “Overall survival HR vs placebo” value ([1]; full population of FAS)?
A: The value was 0.849.

Q: And the “PFS HR vs placebo, subgroup GBC” value ([1]; gall bladder cancer, 95% CI in brackets)?
A: The value was 0.287 (0.1009-0.8183).

Q: And the “PFS HR vs placebo, subgroup IHC” value ([1]; intrahepatic biliary tract cancer, 95% CI in brackets)?
A: The value was 0.872 (0.4359-1.7458).

Q: What about the “Share of disease control patients with high LAT1 expression” value ([1]; of 17 disease control patients) of the same compound?
A: The value was 64.7%.

Q: And the “Share of disease control patients with low LAT1 expression” value ([1]; of 17 disease control patients)?
A: Its value is 17.6%.

Q: What about the “Overall survival HR vs placebo, high LAT1” value ([1]; only patients with high LAT1) of the same compound?
A: The value was 0.670.

Q: What about the “PFS HR vs placebo, EHC and GBC integrated” value ([1]; patients with GBC/EHC) of the same compound?
A: The value was 0.218.

Q: What about the “Grade 3 or higher treatment-related adverse events” value ([2]; fatigue, decreased platelet count, hypertension) of the same compound?
A: The value was “three”.

Q: What about the “Abdominal discomfort, All grades” value ([2]; n = 70) of the same compound?
A: Its value is 2 (2.9%) n (%).

Q: What about the “At least one adverse event, All grades” value ([2]; n = 70) of the same compound?
A: Its value is 60 (85.7%) n (%).

Q: What about the “At least one adverse event, ≥ Grade 3” value ([2]; n = 70) of the same compound?
A: Its value is 21 (30.0%) n (%).

Q: And the “Blood creatinine elevation, All grades” value ([2]; n = 70)?
A: Its value is 1 (1.4%) n (%).

Q: What about the “Cancer pain, All grades” value ([2]; n = 70) of the same compound?
A: The value was 6 (8.6%) n (%).

Q: What about the “Cancer pain, ≥ Grade 3” value ([2]; n = 70) of the same compound?
A: Its value is 1 (1.4%) n (%).

Q: What about the “Cholangitis, All grades” value ([2]; n = 70) of the same compound?
A: The value was 10 (14.3%) n (%).

Q: And the “Cholangitis, ≥ Grade 3” value ([2]; n = 70)?
A: The value was 9 (12.9%) n (%).

Q: What about the “Constipation, All grades” value ([2]; n = 70) of the same compound?
A: Its value is 10 (14.3%) n (%).

Q: What about the “Diarrhea, All grades” value ([2]; n = 70) of the same compound?
A: Its value is 8 (11.4%) n (%).

Q: And the “Diarrhea, ≥ Grade 3” value ([2]; n = 70)?
A: Its value is 1 (1.4%) n (%).

Q: What about the “Fatigue, All grades” value ([2]; n = 70) of the same compound?
A: Its value is 1 (1.4%) n (%).

Q: What about the “Fever, All grades” value ([2]; n = 70) of the same compound?
A: The value was 9 (12.9%) n (%).

Q: What about the “High blood pressure, All grades” value ([2]; n = 70) of the same compound?
A: The value was 5 (7.1%) n (%).

Q: And the “High blood pressure, ≥ Grade 3” value ([2]; n = 70)?
A: Its value is 2 (2.9%) n (%).

Q: And the “Hypophagia, All grades” value ([2]; n = 70)?
A: Its value is 16 (22.9%) n (%).

Q: And the “Insomnia, All grades” value ([2]; n = 70)?
A: The value was 8 (11.4%) n (%).

Q: What about the “Malaise, All grades” value ([2]; n = 70) of the same compound?
A: The value was 11 (15.7%) n (%).

Q: What about the “Malaise, ≥ Grade 3” value ([2]; n = 70) of the same compound?
A: Its value is 1 (1.4%) n (%).

Q: And the “Nasopharyngitis, All grades” value ([2]; n = 70)?
A: The value was 1 (1.4%) n (%).

Q: What about the “Nausea, All grades” value ([2]; n = 70) of the same compound?
A: The value was 9 (12.9%) n (%).

Q: And the “Pruritus, All grades” value ([2]; n = 70)?
A: Its value is 5 (7.1%) n (%).

Q: What about the “Rash, All grades” value ([2]; n = 70) of the same compound?
A: Its value is 2 (2.9%) n (%).

Q: What about the “Stomatitis, All grades” value ([2]; n = 70) of the same compound?
A: The value was 4 (5.7%) n (%).

Q: And the “Tumor pain, All grades” value ([2]; n = 70)?
A: The value was 1 (1.4%) n (%).

Q: What about the “Vomiting, All grades” value ([2]; n = 70) of the same compound?
A: Its value is 5 (7.1%) n (%).

Q: What about the “adverse events of Grade 3 or higher” value ([2]; safety population n=70) of the same compound?
A: Its value is 30.0%.

Q: And the “frequency of all adverse events” value ([2]; safety population n=70)?
A: Its value is 85.7%.

Q: What about the serious adverse events ([2]; safety population n=70) of the same compound?
A: Its serious adverse events is 21.4%.

Q: And the treatment-related adverse events ([2]; safety population n=70)?
A: The treatment-related adverse events was 41.4%.

Q: And the “discontinuations or dose reductions” value ([2]; trial observation period)?
A: Its value is “no discontinuations or dose reductions; also recorded: Neither discontinuations nor dose reductions were considered as treatment related”.

Q: And the treatment-related deaths ([2]; trial observation period)?
A: Its treatment-related deaths is “no deaths suspected to be related to Nanvuranlat; also recorded: No treatment-related deaths; also recorded: no deaths or discontinuations linked to treatment”.

Q: What about the maximum tolerated dose ([3]; 17 patients with solid tumors) of the same compound?
A: The maximum tolerated dose was 60 mg/m^2.

Q: And the “Grade 3 hepatic dysfunction, number of patients” value ([3]; only in patients with the Rapid form of NAT2)?
A: The value was “two”.
